According to ChEMBL document CHEMBL2086262, “Ligand-based designing, in silico screening, and biological evaluation of new potent fructose-1,6-bisphosphatase (FBPase) inhibitors” (Eur J Med Chem, 2012):

Test: Inhibition of human recombinant FBPase using fructose-1,6-biphosphate as substrate incubated for 3 mins prior to substrate addition by spectrophotometric analysis

Compound | IC50 [nM]
CCOc1cc2ncnc(Nc3cccc(-c4cnc(C)o4)c3)c2cc1OCC | 4000
CCCCOc1ccc2ncnc(Nc3cccc(Br)c3)c2c1 | > 10000
O=C(O)CCc1c(C(=O)O)[nH]c2cc(Cl)cc(Cl)c12 | ≥ 2500
CCOc1cc2nc(CN(CC)CC)nc(Nc3cccc(Br)c3)c2cc1OCC | > 10000
COc1cc2c(Nc3cccc(-c4csc(C)n4)c3)ncnc2cc1OC(C)C | 2300
CCOc1cc2ncnc(Nc3cccc(-c4ccco4)c3)c2cc1OCC | 1400
CCOc1cc2ncnc(Nc3cccc(-c4cncs4)c3)c2cc1OCC | 980
Cc1nc(-c2cccc(Nc3ncnc4cc5ccccc5cc34)c2)cs1 | > 10000
CCOc1cc2ncnc(Nc3cccc(-c4csc(Cc5ccccc5)n4)c3)c2cc1OCC | > 10000
O=C(O)c1ccc2c(Nc3cccc(Br)c3)ncnc2c1 | > 10000
COc1cc(-c2cccc(N)c2)c2oc(NS(=O)(=O)c3cc(Cl)ccc3Cl)nc2c1 | 570
COC(=O)CCc1c(C(=O)O)[nH]c2cc(Cl)cc(Cl)c12 | 7000
CCOc1cc2ncnc(Nc3cccc(Br)c3)c2cc1OCC | 1700
CCOc1cc2ncnc(Nc3cccc(C(=O)CBr)c3)c2cc1OCC | > 10000
COc1cc2ncnc(Nc3cccc(Br)c3)c2cc1[N+](=O)[O-] | > 10000
CCOc1cc2ncnc(Nc3ccc(Cl)c(Cl)c3)c2cc1OCC | > 10000
CCOc1cc2ncnc(Nc3cccc(-c4cccc(C)c4)c3)c2cc1OCC | > 10000
NC(=O)CCc1c(C(=O)O)[nH]c2cc(Cl)cc(Cl)c12 | 2200
CCOC(=O)c1[nH]c2cc(Cl)cc(Cl)c2c1CCC(=O)O | > 10000
CCOc1cc2ncnc(Nc3ccc(Cl)c(C)c3)c2cc1OCC | > 10000
COc1cc2c(Nc3cccc(-c4csc(C)n4)c3)ncnc2cc1OC(C)(C)C | 1300
CCOc1cc2ncnc(Nc3cccc(F)c3)c2cc1OCC | 9200

Compound | IC50 [nM]
Cc1nc(-c2cccc(Nc3ncnc4cc5c(cc34)OCCO5)c2)cs1 | > 10000
CCOc1cc2ncnc(Nc3cc(-c4csc(C)n4)c(F)cc3F)c2cc1OCC | > 10000
CCOc1cc2ncnc(Nc3cccc(C#N)c3)c2cc1OCC | > 10000
CCOc1cc2ncnc(Nc3cccc(-c4ccccn4)c3)c2cc1OCC | 390
COc1cc2ncnc(Nc3cccc(Cl)c3)c2cc1OC [TYRPHOSTIN AG-1478] | 1300
CCOc1cc2ncnc(Nc3cccc(-c4cocn4)c3)c2cc1OCC | 3600
O=C(O)c1[nH]c2cc(Cl)cc(Cl)c2c1CCCO | 2700
CCOc1cc2ncnc(Nc3cccc(-c4ccccc4C)c3)c2cc1OCC | > 10000
O=C(CCc1c(C(=O)O)[nH]c2cc(Cl)cc(Cl)c12)NO | 1500
Nc1ncnc2c1ncn2[C@@H]1O[C@H](COP(=O)(O)O)[C@@H](O)[C@H]1O [ADENOSINE PHOSPHATE] | 12300
CCOc1cc2ncnc(Nc3cccc(-c4nccs4)c3)c2cc1OCC | 380
O=C(O)CCCc1c(C(=O)O)[nH]c2cc(Cl)cc(Cl)c12 | 1000
CCOc1cc2nc(Cc3ccccc3)nc(Nc3cccc(Br)c3)c2cc1OCC | > 10000
CCOc1cc2ncnc(Nc3ccc(F)c(-c4csc(C)n4)c3F)c2cc1OCC | > 10000
CN(C)C(=O)c1[nH]c2cc(Cl)cc(Cl)c2c1CCC(=O)O | > 10000
COCCOc1cc2ncnc(Nc3cccc(Br)c3)c2cc1OCCOC | > 10000
CCOc1cc2ncnc(Nc3cccc(C(C)=O)c3)c2cc1OCC | > 10000
O=C(O)CCCCc1c(C(=O)O)[nH]c2cc(Cl)cc(Cl)c12 | 1200
CCOc1cc2ncnc(Nc3cccc(-c4cc[nH]n4)c3)c2cc1OCC | 730
COc1cc2c(Nc3cccc(-c4csc(C)n4)c3)ncnc2cc1OC1CCCC1 | > 10000
CCOc1cc2ncnc(Nc3cccc(-c4nc(C(N)=O)cs4)c3)c2cc1OCC | 830
CCOc1cc2ncnc(Nc3cccc(-c4ccccc4)c3)c2cc1OCC | > 10000

Compound | IC50 [nM]
CCOc1cc2ncnc(Nc3cccc(-c4cncnc4)c3)c2cc1OCC | 1200
O=C(O)CCc1c(CO)[nH]c2cc(Cl)cc(Cl)c12 | > 10000
CCOc1cc2ncnc(Nc3cccc(-c4nc[nH]n4)c3)c2cc1OCC | 640
CCOc1cc2ncnc(Nc3cccc(-c4ccc(C)cc4)c3)c2cc1OCC | > 10000
CCOc1cc2ncnc(Nc3cccc(I)c3)c2cc1OCC | 2100
COc1cc(-c2ccc(OC)nc2)c2oc(NS(=O)(=O)c3cc(Cl)ccc3Cl)nc2c1 | 3500
NC(=O)c1[nH]c2cc(Cl)cc(Cl)c2c1CCC(=O)O | > 10000
CCC(C)Oc1cc2ncnc(Nc3cccc(-c4csc(C)n4)c3)c2cc1OC (configuration not stated) | > 10000
CCOc1cc2nc(-c3ccccc3)nc(Nc3cccc(Br)c3)c2cc1OCC | > 10000
CCOc1cc2ncnc(Nc3ccc(F)c(Cl)c3)c2cc1OCC | 530
O=C(O)Cc1c(C(=O)O)[nH]c2cc(Cl)cc(Cl)c12 | > 10000
O=[N+]([O-])c1cc2c(Nc3cccc(Br)c3)ncnc2cc1Cl | > 10000
C#Cc1cccc(Nc2ncnc3cc(OC)c(OC)cc23)c1 | 900
CCN(CC)c1nc(Nc2cccc(Br)c2)c2cc(OC)c(OC)cc2n1 | > 10000
COc1cc2ncnc(Nc3cccc(-c4csc(C)n4)c3)c2cc1OC(C)C | > 10000
COCCOc1cc2c(Nc3cccc(Br)c3)ncnc2cc1OC | 5500
CN(C)C(=O)CCc1c(C(=O)O)[nH]c2cc(Cl)cc(Cl)c12 | 1700
CC(C)Oc1ccc2ncnc(Nc3cccc(Br)c3)c2c1 | > 10000
Cc1nc(-c2cccc(Nc3ncnc4ccccc34)c2)cs1 | > 10000
CCOc1cc2nc(CN3CCOCC3)nc(Nc3cccc(Br)c3)c2cc1OCC | > 10000
COCCOc1ccc2ncnc(Nc3cccc(Br)c3)c2c1 | 2900

The remaining lines, values ahead:

IC50 [nM] | Compound
930 | CCOc1cc2ncnc(Nc3cccc(-c4csc(C(N)=O)n4)c3)c2cc1OCC
1400 | CCOc1cc2nc(COC)nc(Nc3cccc(-c4csc(C)n4)c3)c2cc1OCC
8000 | CCOc1cc2ncnc(Nc3cccc(-c4csc(N(C)C)n4)c3)c2cc1OCC
> 10000 | CCOc1cc2nc(CC(C)C)nc(Nc3cccc(Br)c3)c2cc1OCC
1000 | CCOc1cc2nc(CCCl)nc(Nc3cccc(-c4csc(C)n4)c3)c2cc1OCC
> 10000 | CCOc1cc2ncnc(Nc3cccc(-c4csc(C(=O)O)n4)c3)c2cc1OCC
500 | CCOc1cc2ncnc(Nc3cccc(-c4coc(C)n4)c3)c2cc1OCC
390 | CCOc1cc2ncnc(Nc3cccc(-c4cscn4)c3)c2cc1OCC
≥ 5600 | CCCOc1cc2ncnc(Nc3cccc(-c4csc(C)n4)c3)c2cc1OC
4500 | CCOc1cc2ncnc(Nc3cccc(-c4csc(NN)n4)c3)c2cc1OCC
1000 | CCOc1cc2nc(C)nc(Nc3cccc(-c4csc(C)n4)c3)c2cc1OCC
1700 | CCOc1cc2nc(CC(C)C)nc(Nc3cccc(-c4csc(C)n4)c3)c2cc1OCC
5300 | CCOc1cc2ncnc(Nc3ccc(Cl)c(-c4csc(C)n4)c3)c2cc1OCC
4400 | COc1cc2ncnc(Nc3cccc(-c4csc(C)n4)c3)c2cc1OC
> 10000 | CCOc1cc2nc(CS(C)(=O)=O)nc(Nc3cccc(Br)c3)c2cc1OCC
870 | CCOc1cc2nc(CCl)nc(Nc3cccc(-c4csc(C)n4)c3)c2cc1OCC
1800 | CCOc1ccc(-c2csc(C)n2)cc1Nc1ncnc2cc(OCC)c(OCC)cc12
> 10000 | COCCOc1cc2c(Nc3cccc(-c4csc(C)n4)c3)ncnc2cc1OC
220 | CCOc1cc2nc(CCN)nc(Nc3cccc(-c4csc(C)n4)c3)c2cc1OCC
> 10000 | COCCOc1cc2ncnc(Nc3cccc(-c4csc(C)n4)c3)c2cc1OC
4100 | CCOc1cc2nc(CCCCl)nc(Nc3cccc(-c4csc(C)n4)c3)c2cc1OCC
> 10000 | CCOc1cc2nc(CCl)nc(Nc3cccc(Br)c3)c2cc1OCC
780 | CCOc1cc2ncnc(Nc3cccc(-c4csc(OC)n4)c3)c2cc1OCC
> 10000 | CCOc1cc2nc(C(F)(F)F)nc(Nc3cccc(-c4csc(C)n4)c3)c2cc1OCC

IC50 [nM] | Compound
7300 | CCOc1cc2ncnc(Nc3cccc(-c4csc(COC)n4)c3)c2cc1OCC
2100 | CCOc1cc2nc(CS(C)(=O)=O)nc(Nc3cccc(-c4csc(C)n4)c3)c2cc1OCC
≥ 640 | CCOc1cc2ncnc(Nc3cccc(-c4csc(C)n4)c3)c2cc1OCC
800 | CCOc1cc2ncnc(Nc3cccc(-c4csc(NC)n4)c3)c2cc1OCC
960 | CCOc1cc2nc(CC(=O)O)nc(Nc3cccc(-c4csc(C)n4)c3)c2cc1OCC
1200 | CCOc1cc2c(Nc3cccc(-c4csc(C)n4)c3)ncnc2cc1OC
1800 | CCOc1cc2ncnc(Nc3cc(-c4csc(C)n4)ccc3C)c2cc1OCC
770 | CCOc1cc2nc(-n3ccnc3)nc(Nc3cccc(-c4csc(C)n4)c3)c2cc1OCC
2100 | CCOc1cc2ncnc(Nc3cc(-c4csc(C)n4)ccc3CC)c2cc1OCC
1700 | CCOc1cc2ncnc(Nc3cc(-c4csc(C)n4)ccc3Cl)c2cc1OCC
830 | CCOc1cc2ncnc(Nc3cccc(-c4csc(C5CC5)n4)c3)c2cc1OCC
3400 | CCOc1cc2ncnc(Nc3cccc(-c4csc(C)n4)c3)c2cc1OC
1400 | CCCc1nc(Nc2cccc(-c3csc(C)n3)c2)c2cc(OCC)c(OCC)cc2n1
480 | CCOc1cc2ncnc(Nc3cc(-c4csc(C)n4)ccc3F)c2cc1OCC
1500 | CCOc1cc2nc(CC)nc(Nc3cccc(-c4csc(C)n4)c3)c2cc1OCC
5000 | CCOc1cc2nc(C(C)C)nc(Nc3cccc(-c4csc(C)n4)c3)c2cc1OCC
2000 | CCOc1cc2nc(CN(C)C)nc(Nc3cccc(-c4csc(C)n4)c3)c2cc1OCC
2600 | CCOc1cc2nc(Cl)nc(Nc3cccc(-c4csc(C)n4)c3)c2cc1OCC
6100 | CCOc1cc2nc(CN3CCCC3)nc(Nc3cccc(-c4csc(C)n4)c3)c2cc1OCC
420 | CCOc1cc2c(Nc3cccc(-c4csc(C)n4)c3)ncnc2cc1OC(C)C
> 10000 | CCCc1nc(-c2cccc(Nc3ncnc4cc(OCC)c(OCC)cc34)c2)cs1
990 | CCOc1cc2ncnc(Nc3cc(-c4csc(C)n4)ccc3OC)c2cc1OCC
1000 | CCCOc1cc2ncnc(Nc3cccc(-c4csc(C)n4)c3)c2cc1OCC
